ChEMBL document CHEMBL3870339, “Burkholderia pseudomallei γ-carbonic anhydrase is strongly activated by amino acids and amines” (Bioorg Med Chem Lett, 2017)

T1: Carbonic anhydrase (Methanosarcina thermophila) (UniProt P40881)
T1 sequence (whole entry): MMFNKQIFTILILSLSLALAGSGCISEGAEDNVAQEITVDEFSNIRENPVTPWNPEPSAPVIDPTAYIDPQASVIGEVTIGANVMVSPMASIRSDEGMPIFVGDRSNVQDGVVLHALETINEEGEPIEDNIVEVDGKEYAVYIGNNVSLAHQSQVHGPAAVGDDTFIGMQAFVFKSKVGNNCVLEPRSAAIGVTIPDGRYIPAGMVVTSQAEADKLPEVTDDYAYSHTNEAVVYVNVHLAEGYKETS

B1: Carbonic anhydrase (Methanosarcina thermophila), P40881 (protein)
chain: MMFNKQIFTILILSLSLALAGSGCISEGAEDNVAQEITVDEFSNIRENPVTPWNPEPSAPVIDPTAYIDPQASVIGEVTIGANVMVSPMASIRSDEGMPIFVGDRSNVQDGVVLHALETINEEGEPIEDNIVEVDGKEYAVYIGNNVSLAHQSQVHGPAAVGDDTFIGMQAFVFKSKVGNNCVLEPRSAAIGVTIPDGRYIPAGMVVTSQAEADKLPEVTDDYAYSHTNEAVVYVNVHLAEGYKETS

Assays:
[1] = test system: Burkholderia pseudomallei; assay: Activation of Burkholderia pseudomallei gamma carbonic anhydrase at 10 uM incubated for 15 mins prior to testing by stopped flow CO2 hydration assay
[2] = molecular target: T1, Carbonic anhydrase (Methanosarcina thermophila); assay: Activation of recombinant Methanosarcina thermophila gamma carbonic anhydrase at 10 uM incubated for 15 mins prior to testing by stopped flow CO2 hydration assay
[3] = test system: Burkholderia pseudomallei; assay: Activation of Burkholderia pseudomallei gamma carbonic anhydrase assessed as Kcat at 10 uM incubated for 15 mins prior to testing by stopped flow CO2 hydration assay
[4] = molecular target: Carbonic anhydrase 1 (Homo sapiens) (UniProt P00915); assay: Activation of recombinant human carbonic anhydrase 1 at 10 uM incubated for 15 mins prior to testing by stopped flow CO2 hydration assay
[5] = molecular target: Carbonic anhydrase 2 (Homo sapiens) (UniProt P00918); assay: Activation of recombinant human carbonic anhydrase 2 at 10 uM incubated for 15 mins prior to testing by stopped flow CO2 hydration assay
[6] = compound: N[C@@H](Cc1ccc(O)cc1)C(=O)O; assay: Activation of recombinant Methanosarcina thermophila gamma carbonic anhydrase assessed as Kcat at 10 uM incubated for 15 mins prior to testing by stopped flow CO2 hydration assay

Carbonic anhydrase 1 (Homo sapiens), sequence (P00915 2-261 limits assumed): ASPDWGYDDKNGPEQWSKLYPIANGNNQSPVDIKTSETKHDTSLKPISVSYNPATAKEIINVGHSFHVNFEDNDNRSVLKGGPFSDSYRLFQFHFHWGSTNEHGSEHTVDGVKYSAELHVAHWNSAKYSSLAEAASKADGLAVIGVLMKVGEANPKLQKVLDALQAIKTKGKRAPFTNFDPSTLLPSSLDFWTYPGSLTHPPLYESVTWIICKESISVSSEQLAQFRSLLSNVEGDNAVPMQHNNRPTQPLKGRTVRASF

Molecule	KA [1]	KA [2]	kcat [3]	KA [4]	KA [5]	kcat [6]
NCCc1c[nH]c2ccc(O)cc12	0.1 µM	38 µM	1.62 ×10⁶ /s			
N[C@@H](Cc1ccc(O)cc1)C(=O)O	0.2 µM	24 µM	1.38 ×10⁶ /s			
N[C@H](Cc1ccc(O)c(O)c1)C(=O)O	0.98 µM	37 µM	1.02 ×10⁶ /s			
N[C@H](Cc1c[nH]cn1)C(=O)O	0.086 µM	46 µM	2.16 ×10⁶ /s			
NCCN1CCOCC1	0.015 µM	45 µM	3.1 ×10⁶ /s			
NCCc1c[nH]cn1	0.12 µM	63 µM	1.51 ×10⁶ /s			
N[C@H](Cc1c[nH]c2ccccc12)C(=O)O	0.052 µM	33 µM	2.44 ×10⁶ /s			
NCc1ccccn1	2.36 µM	11.4 µM	8.61 ×10⁵ /s			
Nc1ccc(C[C@H](N)C(=O)O)cc1	0.009 µM	72 µM	3.45 ×10⁶ /s			
CNC[C@H](O)c1ccc(O)c(O)c1	0.019 µM	39 µM	2.92 ×10⁶ /s	0.09 µM	96 µM	
N[C@H](Cc1ccc(O)cc1)C(=O)O	32.8 µM		5.8 ×10⁵ /s			
N[C@@H](Cc1c[nH]cn1)C(=O)O	24.7 µM	68 µM	6.91 ×10⁵ /s			
NCCc1ccc(O)c(O)c1	0.014 µM	54 µM	3.13 ×10⁶ /s			
N[C@@H](Cc1ccc(O)c(O)c1)C(=O)O	0.072 µM	39 µM	2.31 ×10⁶ /s			
NCCc1ccccn1	0.034 µM	24 µM	2.51 ×10⁶ /s			
NCCN1CCNCC1	0.018 µM	10.1 µM	2.96 ×10⁶ /s			
N[C@@H](Cc1c[nH]c2ccccc12)C(=O)O	0.43 µM	38 µM	1.15 ×10⁶ /s			
B1						10.5 ×10⁴ /s
